# Test results taken from patent publication US20070128217A1 (priority 2003, published 2007).
# What was measured:
# [1] = system: rabbit serum obtained by immunizing a rabbit with the SARS-CoV strain Frankfurt 1; assay type: binding; design: Binding of a rabbit serum to linear peptides / Binding of a rabbit serum to looped peptides / Rabbit serum linear peptides / Rabbit serum looped peptides / Binding of a rabbit serum to linear peptides of protein N of SARS-CoV Urbani (Rabbit serum linear peptides) / Binding of a rabbit serum to looped/cyclic peptides of protein N of SARS-CoV Urbani (Rabbit serum looped peptides): unit not given here
# [2] = system: control sera (pooled serum of ten healthy LUMC hospital workers; commercial negative donor pooled serum from the Dutch bloodbank); assay type: binding, human; design: Binding of Control serum LUMC to linear peptides / Binding of Control serum Blood-bank to linear peptides / Binding of Control serum LUMC to looped peptides / Binding of Control Serum Blood-Bank to Looped peptides / Binding of Control serum LUMC to linear peptides of the protein M of SARS-CoV Urbani / Binding of Control serum Blood-bank to linear peptides of the protein M of SARS-CoV Urbani / Binding of Control serum LUMC to looped peptides of the protein M of SARS-CoV Urbani / Binding of Control Serum Blood-Bank to Looped peptides of the protein M of SARS-CoV Urbani: unit not given here
# [3] = system: antibodies in sera from SARS patients (sera 1a, 1b, 2, 6, 37, 62, London, SARS-yellow, SARS-green); assay type: binding, human; design: Binding of serum 6 to linear peptides of protein X1 of SARS-CoV Urbani / Binding of serum 37 to linear peptides of protein X1 of SARS-CoV Urbani / Binding of serum 6 to looped/cyclic peptide (PEPSCAN-ELISA) / Binding of serum 37 to looped/cyclic peptide (PEPSCAN-ELISA) / Binding of serum 37 to looped/cyclic peptides of protein X1 of SARS-CoV Urbani / Binding of serum 6 to linear peptides of protein X2 / Binding of serum 37 to linear peptides of protein X2 / Binding of serum 37 to looped/cyclic peptides of protein X2 of SARS-CoV Urbani / Binding of serum 6 to linear peptides of protein M of SARS-CoV Urbani / Binding of serum 37 to linear peptides of protein M of SARS-CoV Urbani / Binding of serum 6 to looped/cyclic peptides of protein M of SARS-CoV Urbani / Binding of serum 37 to looped/cyclic peptides of protein M of SARS-CoV Urbani / Binding of serum 6 to linear peptides of protein X3 of SARS-CoV Urbani / Binding of serum 37 to linear peptides of protein X3 of SARS-CoV Urbani / Binding of serum 37 to looped/cyclic peptides of protein X3 of SARS-CoV Urbani / Binding of serum 6 to linear peptides of protein X4 of SARS-CoV Urbani / Binding of serum 37 to linear peptides of protein X4 of SARS-CoV Urbani / Binding of serum 37 to looped/cyclic peptides of protein X4 of SARS-CoV Urbani / Binding of serum 6 to linear peptides of protein X5 of SARS-CoV Urbani / Binding of serum 37 to linear peptides of protein X5 of SARS-CoV Urbani / Binding of serum 37 to looped/cyclic peptides of protein X5 of SARS-CoV Urbani / Binding of serum 6 to linear peptides of protein N of SARS-CoV Urbani / Binding of serum 37 to linear peptides of protein N of SARS-CoV Urbani / Binding of serum 6 to linear peptide (PEPSCAN-ELISA) / Binding of serum 1a to looped/cyclic peptides of protein N of SARS-CoV Urbani / Binding of serum 1b to looped/cyclic peptides of protein N of SARS-CoV Urbani / Binding of serum 2 to looped/cyclic peptides of protein N of SARS-CoV Urbani / Binding of serum 6 to looped/cyclic peptides of protein N of SARS-CoV Urbani / Binding of serum 37 to looped/cyclic peptides of protein N of SARS-CoV Urbani / Binding of serum 62 to looped/cyclic peptides of protein N of SARS-CoV Urbani / Binding of serum London to looped/cyclic peptides of protein N of SARS-CoV Urbani / Binding of serum SARS-green to looped/cyclic peptides of protein N of SARS-CoV Urbani: unit not given here
sequence,measurement,setting,value
TNILLNVPLRGTIVT,Rabbit serum linear peptides,[1],0.2
same,Rabbit serum looped peptides,[1],0.1
same,Binding of Control Serum Blood-Bank to Looped peptides of the protein M of SARS-CoV Urbani,[2],0.8
same,Binding of Control serum Blood-bank to linear peptides of the protein M of SARS-CoV Urbani,[2],0.8
same,Binding of Control serum LUMC to linear peptides of the protein M of SARS-CoV Urbani,[2],0.7
same,Binding of Control serum LUMC to looped peptides of the protein M of SARS-CoV Urbani,[2],0.6
same,Binding of serum 1a to linear peptides of protein M of SARS-CoV Urbani,[3],0.6
same,Binding of serum 1a to looped/cyclic peptides of protein M of SARS-CoV Urbani,[3],0.6
same,Binding of serum 1b to linear peptides of protein M of SARS-CoV Urbani,[3],0.5
same,Binding of serum 1b to looped/cyclic peptides of protein M of SARS-CoV Urbani,[3],0.4
same,Binding of serum 2 to linear peptides of protein M of SARS-CoV Urbani,[3],0.6
same,Binding of serum 2 to looped/cyclic peptides of protein M of SARS-CoV Urbani,[3],0.6
same,Binding of serum 6 to linear peptides of protein M of SARS-CoV Urbani,[3],0.4
same,Binding of serum 6 to looped/cyclic peptides of protein M of SARS-CoV Urbani,[3],0.8
same,Binding of serum 37 to linear peptides of protein M of SARS-CoV Urbani,[3],0.4
same,Binding of serum 37 to looped/cyclic peptides of protein M of SARS-CoV Urbani,[3],0.7
same,Binding of serum 62 to linear peptides of protein M of SARS-CoV Urbani,[3],0.5
same,Binding of serum 62 to looped/cyclic peptides of protein M of SARS-CoV Urbani,[3],0.6
same,Binding of serum London to linear peptides of protein M of SARS-CoV Urbani,[3],0.3
same,Binding of serum London to looped/cyclic peptides of protein M of SARS-CoV Urbani,[3],0.2
same,Binding of serum SARS-green to linear peptides of protein M of SARS-CoV Urbani,[3],0.5
same,Binding of serum SARS-green to looped/cyclic peptides of protein M of SARS-CoV Urbani,[3],0.2
same,Binding of serum SARS-yellow to linear peptides of protein M of SARS-CoV Urbani,[3],0.2
same,Binding of serum SARS-yellow to looped/cyclic peptides of protein M of SARS-CoV Urbani,[3],0.4
TQITTDTGIENATFF,Binding of a rabbit serum to linear peptides,[1],0.1
same,Binding of a rabbit serum to looped peptides,[1],0.6
same,Binding of Control Serum Blood-Bank to Looped peptides,[2],0.5
same,Binding of Control serum Blood-bank to linear peptides,[2],0.6
same,Binding of Control serum LUMC to linear peptides,[2],0.8
same,Binding of Control serum LUMC to looped peptides,[2],0.5
same,Binding of serum 1a to linear peptides of protein X1 of SARS-CoV Urbani,[3],0.7
same,Binding of serum 1a to looped/cyclic peptides of protein X1 of SARS-CoV Urbani,[3],0.5
same,Binding of serum 1b to linear peptides of protein X1 of SARS-CoV Urbani,[3],0.6
same,Binding of serum 1b to looped/cyclic peptides of protein X1 of SARS-CoV Urbani,[3],0.3
same,Binding of serum 2 to linear peptides of protein X1 of SARS-CoV Urbani,[3],0.5
same,Binding of serum 2 to looped/cyclic peptides of protein X1 of SARS-CoV Urbani,[3],0.2
same,Binding of serum 6 to linear peptides of protein X1 of SARS-CoV Urbani,[3],0.6
same,Binding of serum 6 to looped/cyclic peptides of protein X1 of SARS-CoV Urbani,[3],0.3
same,Binding of serum 37 to linear peptides of protein X1 of SARS-CoV Urbani,[3],0.7
same,Binding of serum 37 to looped/cyclic peptides of protein X1 of SARS-CoV Urbani,[3],0.4
same,Binding of serum 62 to linear peptides of protein X1 of SARS-CoV Urbani,[3],0.5
same,Binding of serum 62 to looped/cyclic peptides of protein X1 of SARS-CoV Urbani,[3],0.5
same,Binding of serum London to linear peptides of protein X1 of SARS-CoV Urbani,[3],0.3
same,Binding of serum London to looped/cyclic peptides of protein X1 of SARS-CoV Urbani,[3],0.2
same,Binding of serum SARS-green to linear peptides of protein X1 of SARS-CoV Urbani,[3],0.7
same,Binding of serum SARS-green to looped/cyclic peptides of protein X1 of SARS-CoV Urbani,[3],0.3
same,Binding of serum SARS-yellow to linear peptides of protein X1 of SARS-CoV Urbani,[3],0.5
same,Binding of serum SARS-yellow to looped/cyclic peptides of protein X1 of SARS-CoV Urbani,[3],0.4
TQSTALQELLIQQWI,Binding of a rabbit serum to linear peptides,[1],0.3
same,Binding of a rabbit serum to looped peptides,[1],0.4
same,Binding of Control Serum Blood-Bank to Looped peptides,[2],0.7
same,Binding of Control serum Blood-bank to linear peptides,[2],0.8
same,Binding of Control serum LUMC to linear peptides,[2],0.6
same,Binding of Control serum LUMC to looped peptides,[2],0.6
same,Binding of serum 1a to linear peptides of protein X2,[3],0.7
same,Binding of serum 1a to looped/cyclic peptides of protein X2 of SARS-CoV Urbani,[3],0.6
same,Binding of serum 1b to linear peptides of protein X2,[3],0.6
same,Binding of serum 1b to looped/cyclic peptides of protein X2 of SARS-CoV Urbani,[3],0.5
same,Binding of serum 2 to linear peptides of protein X2,[3],0.3
same,Binding of serum 2 to looped/cyclic peptides of protein X2 of SARS-CoV Urbani,[3],0.4
same,Binding of serum 6 to linear peptides of protein X2,[3],0.7
same,Binding of serum 6 to looped/cyclic peptides of protein X2 of SARS-CoV Urbani,[3],0.2
same,Binding of serum 37 to linear peptides of protein X2,[3],0.6
same,Binding of serum 37 to looped/cyclic peptides of protein X2 of SARS-CoV Urbani,[3],0.6
same,Binding of serum 62 to linear peptides of protein X2,[3],0.6
same,Binding of serum 62 to looped/cyclic peptides of protein X2 of SARS-CoV Urbani,[3],0.6
same,Binding of serum London to linear peptides of protein X2,[3],0.7
same,Binding of serum London to looped/cyclic peptides of protein X2 of SARS-CoV Urbani,[3],0.2
same,Binding of serum SARS-green to linear peptides of protein X2,[3],0.6
same,Binding of serum SARS-green to looped/cyclic peptides of protein X2 of SARS-CoV Urbani,[3],0.5
same,Binding of serum SARS-yellow to linear peptides of protein X2,[3],0.7
same,Binding of serum SARS-yellow to looped/cyclic peptides of protein X2 of SARS-CoV Urbani,[3],0.5
TRPLMESELVIGAVI,Rabbit serum linear peptides,[1],0.2
same,Rabbit serum looped peptides,[1],0.3
same,Binding of Control Serum Blood-Bank to Looped peptides of the protein M of SARS-CoV Urbani,[2],1.1
same,Binding of Control serum Blood-bank to linear peptides of the protein M of SARS-CoV Urbani,[2],0.9
same,Binding of Control serum LUMC to linear peptides of the protein M of SARS-CoV Urbani,[2],1.0
same,Binding of Control serum LUMC to looped peptides of the protein M of SARS-CoV Urbani,[2],1.0
same,Binding of serum 1a to linear peptides of protein M of SARS-CoV Urbani,[3],0.8
same,Binding of serum 1b to linear peptides of protein M of SARS-CoV Urbani,[3],0.7
same,Binding of serum 2 to linear peptides of protein M of SARS-CoV Urbani,[3],0.7
same,Binding of serum 6 to linear peptides of protein M of SARS-CoV Urbani,[3],0.6
same,Binding of serum 37 to linear peptides of protein M of SARS-CoV Urbani,[3],0.7
same,Binding of serum 62 to linear peptides of protein M of SARS-CoV Urbani,[3],0.6
same,Binding of serum London to linear peptides of protein M of SARS-CoV Urbani,[3],0.3
same,Binding of serum SARS-green to linear peptides of protein M of SARS-CoV Urbani,[3],0.8
same,Binding of serum SARS-yellow to linear peptides of protein M of SARS-CoV Urbani,[3],0.2
same,"Recognition of the peptide by sera of SARS-CoV infected individuals, and form (linear, looped/cyclic) in which it is recognized",[3],recognized in looped/cyclic form
TSTHFAFACADGTRH,Rabbit serum linear peptides,[1],0.5
same,Rabbit serum looped peptides,[1],0.7
same,Binding of Control Serum Blood-Bank to Looped peptides,[2],0.8
same,Binding of Control serum Blood-bank to linear peptides,[2],0.7
same,Binding of Control serum LUMC to linear peptides,[2],0.8
same,Binding of Control serum LUMC to looped peptides,[2],0.8
same,Binding of serum 1a to linear peptides of protein X4 of SARS-CoV Urbani,[3],0.7
same,Binding of serum 1a to looped/cyclic peptides of protein X4 of SARS-CoV Urbani,[3],0.8
same,Binding of serum 1b to linear peptides of protein X4 of SARS-CoV Urbani,[3],0.6
same,Binding of serum 1b to looped/cyclic peptides of protein X4 of SARS-CoV Urbani,[3],0.7
same,Binding of serum 2 to linear peptides of protein X4 of SARS-CoV Urbani,[3],0.5
same,Binding of serum 2 to looped/cyclic peptides of protein X4 of SARS-CoV Urbani,[3],0.6
same,Binding of serum 6 to linear peptides of protein X4 of SARS-CoV Urbani,[3],0.7
same,Binding of serum 6 to looped/cyclic peptides of protein X4 of SARS-CoV Urbani,[3],0.7
same,Binding of serum 37 to linear peptides of protein X4 of SARS-CoV Urbani,[3],0.7
same,Binding of serum 37 to looped/cyclic peptides of protein X4 of SARS-CoV Urbani,[3],0.7
same,Binding of serum 62 to linear peptides of protein X4 of SARS-CoV Urbani,[3],0.8
same,Binding of serum 62 to looped/cyclic peptides of protein X4 of SARS-CoV Urbani,[3],0.8
same,Binding of serum London to linear peptides of protein X4 of SARS-CoV Urbani,[3],0.8
same,Binding of serum London to looped/cyclic peptides of protein X4 of SARS-CoV Urbani,[3],0.4
same,Binding of serum SARS-green to linear peptides of protein X4 of SARS-CoV Urbani,[3],0.6
same,Binding of serum SARS-green to looped/cyclic peptides of protein X4 of SARS-CoV Urbani,[3],0.6
same,Binding of serum SARS-yellow to linear peptides of protein X4 of SARS-CoV Urbani,[3],0.2
same,Binding of serum SARS-yellow to looped/cyclic peptides of protein X4 of SARS-CoV Urbani,[3],0.7
